Laboratory results: patent publication US20220213047A1, “CARBONIC ANHYDRASE INHIBITORS FOR TREATMENT OF NEISSERIA GONORRHOEAE INFECTION” (Purdue Research Foundation, priority 2021, published 2022)
Converted amounts (≈) assume the structure as drawn.

Legend:
N. gonorrhoeae [1] = assay: MIC by agar dilution on a larger panel of N. gonorrhoeae strains; type: cell-based, Neisseria gonorrhoeae; conditions: Neisseria gonorrhoeae
Experimental: (§1) These tests were performed in normal culture conditions with standard CO2 levels and in CO2 (5% in incubator) conditions.

N. gonorrhoeae [2] = assay: MIC against N. gonorrhoeae clinical isolates, normal and CO2 conditions; type: cell-based; conditions: Neisseria gonorrhoeae
Experimental: as §1

[3] = strain panel of Table 9, CO2 (5% CO2 containing air)

MIC (N. gonorrhoeae [1]; N. gonorrhoeae 165, CO2 (5% CO2 containing air), read-out: MIC): > 128 µg/mL
MIC (N. gonorrhoeae [1]; N. gonorrhoeae 165, Non CO2 (ambient air), read-out: MIC): 2 µg/mL (≈ 6.55 µM)
MIC (N. gonorrhoeae [1]; N. gonorrhoeae 166, CO2 (5% CO2 containing air), read-out: MIC): > 128 µg/mL
MIC (N. gonorrhoeae [1]; N. gonorrhoeae 166, Non CO2 (ambient air), read-out: MIC): 8 µg/mL (≈ 26.2 µM)
MIC (N. gonorrhoeae [1]; N. gonorrhoeae 167, CO2 (5% CO2 containing air), read-out: MIC): > 128 µg/mL
MIC (N. gonorrhoeae [1]; N. gonorrhoeae 167, Non CO2 (ambient air), read-out: MIC): 4 µg/mL (≈ 13.1 µM)
MIC (N. gonorrhoeae [1]; N. gonorrhoeae 170, CO2 (5% CO2 containing air), read-out: MIC): > 128 µg/mL
MIC (N. gonorrhoeae [1]; N. gonorrhoeae 170, Non CO2 (ambient air), read-out: MIC): 64 µg/mL (≈ 210 µM)
MIC (N. gonorrhoeae [1]; N. gonorrhoeae 171, CO2 (5% CO2 containing air), read-out: MIC): > 128 µg/mL
MIC (N. gonorrhoeae [1]; N. gonorrhoeae 171, Non CO2 (ambient air), read-out: MIC): 1 µg/mL (≈ 3.28 µM)
MIC (N. gonorrhoeae [1]; N. gonorrhoeae 173, CO2 (5% CO2 containing air), read-out: MIC): > 128 µg/mL
MIC (N. gonorrhoeae [1]; N. gonorrhoeae 173, Non CO2 (ambient air), read-out: MIC): 2 µg/mL (≈ 6.55 µM)
MIC (N. gonorrhoeae [1]; N. gonorrhoeae 174, CO2 (5% CO2 containing air), read-out: MIC): > 128 µg/mL
MIC (N. gonorrhoeae [1]; N. gonorrhoeae 174, Non CO2 (ambient air), read-out: MIC): 2 µg/mL (≈ 6.55 µM)
MIC (N. gonorrhoeae [1]; N. gonorrhoeae 175, CO2 (5% CO2 containing air), read-out: MIC): > 128 µg/mL
MIC (N. gonorrhoeae [1]; N. gonorrhoeae 175, Non CO2 (ambient air), read-out: MIC): 16 µg/mL (≈ 52.4 µM)
MIC (N. gonorrhoeae [1]; N. gonorrhoeae 176, CO2 (5% CO2 containing air), read-out: MIC): > 128 µg/mL
MIC (N. gonorrhoeae [1]; N. gonorrhoeae 176, Non CO2 (ambient air), read-out: MIC): 4 µg/mL (≈ 13.1 µM)
MIC (N. gonorrhoeae [1]; N. gonorrhoeae 177, CO2 (5% CO2 containing air), read-out: MIC): 128 µg/mL (≈ 419 µM)
MIC (N. gonorrhoeae [1]; N. gonorrhoeae 177, Non CO2 (ambient air), read-out: MIC): 4 µg/mL (≈ 13.1 µM)
MIC (N. gonorrhoeae [1]; N. gonorrhoeae 178, CO2 (5% CO2 containing air), read-out: MIC): > 128 µg/mL
MIC (N. gonorrhoeae [1]; N. gonorrhoeae 178, Non CO2 (ambient air), read-out: MIC): 1 µg/mL (≈ 3.28 µM)
MIC (N. gonorrhoeae [1]; N. gonorrhoeae 179, CO2 (5% CO2 containing air), read-out: MIC): > 128 µg/mL
MIC (N. gonorrhoeae [1]; N. gonorrhoeae 179, Non CO2 (ambient air), read-out: MIC): 8 µg/mL (≈ 26.2 µM)
MIC (N. gonorrhoeae [1]; N. gonorrhoeae 180, CO2 (5% CO2 containing air), read-out: MIC): > 128 µg/mL
MIC (N. gonorrhoeae [1]; N. gonorrhoeae 180, Non CO2 (ambient air), read-out: MIC): 8 µg/mL (≈ 26.2 µM)
MIC (N. gonorrhoeae [1]; N. gonorrhoeae 181, CO2 (5% CO2 containing air), read-out: MIC): 128 µg/mL (≈ 419 µM)
MIC (N. gonorrhoeae [1]; N. gonorrhoeae 181, Non CO2 (ambient air), read-out: MIC): 8 µg/mL (≈ 26.2 µM)
MIC (N. gonorrhoeae [1]; N. gonorrhoeae 182, CO2 (5% CO2 containing air), read-out: MIC): > 128 µg/mL
MIC (N. gonorrhoeae [1]; N. gonorrhoeae 182, Non CO2 (ambient air), read-out: MIC): 16 µg/mL (≈ 52.4 µM)
MIC (N. gonorrhoeae [1]; N. gonorrhoeae 183, CO2 (5% CO2 containing air), read-out: MIC): 128 µg/mL (≈ 419 µM)
MIC (N. gonorrhoeae [1]; N. gonorrhoeae 183, Non CO2 (ambient air), read-out: MIC): 1 µg/mL (≈ 3.28 µM)
MIC (N. gonorrhoeae [1]; N. gonorrhoeae 184, CO2 (5% CO2 containing air), read-out: MIC): > 128 µg/mL
MIC (N. gonorrhoeae [1]; N. gonorrhoeae 184, Non CO2 (ambient air), read-out: MIC): 4 µg/mL (≈ 13.1 µM)
MIC (N. gonorrhoeae [1]; N. gonorrhoeae 185, CO2 (5% CO2 containing air), read-out: MIC): > 128 µg/mL
MIC (N. gonorrhoeae [1]; N. gonorrhoeae 185, Non CO2 (ambient air), read-out: MIC): 8 µg/mL (≈ 26.2 µM)
MIC (N. gonorrhoeae [1]; N. gonorrhoeae 186, CO2 (5% CO2 containing air), read-out: MIC): > 128 µg/mL
MIC (N. gonorrhoeae [1]; N. gonorrhoeae 186, Non CO2 (ambient air), read-out: MIC): 8 µg/mL (≈ 26.2 µM)
MIC (N. gonorrhoeae [1]; N. gonorrhoeae 188, CO2 (5% CO2 containing air), read-out: MIC): > 128 µg/mL
MIC (N. gonorrhoeae [1]; N. gonorrhoeae 188, Non CO2 (ambient air), read-out: MIC): 1 µg/mL (≈ 3.28 µM)
MIC (N. gonorrhoeae [1]; N. gonorrhoeae 191, CO2 (5% CO2 containing air), read-out: MIC): > 128 µg/mL
MIC (N. gonorrhoeae [1]; N. gonorrhoeae 191, Non CO2 (ambient air), read-out: MIC): 4 µg/mL (≈ 13.1 µM)
MIC (N. gonorrhoeae [1]; N. gonorrhoeae 193, CO2 (5% CO2 containing air), read-out: MIC): 128 µg/mL (≈ 419 µM)
MIC (N. gonorrhoeae [1]; N. gonorrhoeae 193, Non CO2 (ambient air), read-out: MIC): 4 µg/mL (≈ 13.1 µM)
MIC (N. gonorrhoeae [1]; N. gonorrhoeae 194, CO2 (5% CO2 containing air), read-out: MIC): 128 µg/mL (≈ 419 µM)
MIC (N. gonorrhoeae [1]; N. gonorrhoeae 194, Non CO2 (ambient air), read-out: MIC): 4 µg/mL (≈ 13.1 µM)
MIC (N. gonorrhoeae [1]; N. gonorrhoeae 196, CO2 (5% CO2 containing air), read-out: MIC): > 128 µg/mL
MIC (N. gonorrhoeae [1]; N. gonorrhoeae 196, Non CO2 (ambient air), read-out: MIC): 1 µg/mL (≈ 3.28 µM)
MIC (N. gonorrhoeae [1]; N. gonorrhoeae 197, CO2 (5% CO2 containing air), read-out: MIC): > 128 µg/mL
MIC (N. gonorrhoeae [1]; N. gonorrhoeae 197, Non CO2 (ambient air), read-out: MIC): 4 µg/mL (≈ 13.1 µM)
MIC (N. gonorrhoeae [1]; N. gonorrhoeae 198, CO2 (5% CO2 containing air), read-out: MIC): > 128 µg/mL
MIC (N. gonorrhoeae [1]; N. gonorrhoeae 198, Non CO2 (ambient air), read-out: MIC): 1 µg/mL (≈ 3.28 µM)
MIC (N. gonorrhoeae [1]; N. gonorrhoeae 200, CO2 (5% CO2 containing air), read-out: MIC): > 128 µg/mL
MIC (N. gonorrhoeae [1]; N. gonorrhoeae 200, Non CO2 (ambient air), read-out: MIC): 32 µg/mL (≈ 105 µM)
MIC (N. gonorrhoeae [1]; N. gonorrhoeae 202, CO2 (5% CO2 containing air), read-out: MIC): > 128 µg/mL
MIC (N. gonorrhoeae [1]; N. gonorrhoeae 202, Non CO2 (ambient air), read-out: MIC): 16 µg/mL (≈ 52.4 µM)
MIC (N. gonorrhoeae [1]; N. gonorrhoeae 203, CO2 (5% CO2 containing air), read-out: MIC): > 128 µg/mL
MIC (N. gonorrhoeae [1]; N. gonorrhoeae 203, Non CO2 (ambient air), read-out: MIC): 1 µg/mL (≈ 3.28 µM)
MIC (N. gonorrhoeae [1]; N. gonorrhoeae 205, CO2 (5% CO2 containing air), read-out: MIC): > 128 µg/mL
MIC (N. gonorrhoeae [1]; N. gonorrhoeae 205, Non CO2 (ambient air), read-out: MIC): 16 µg/mL (≈ 52.4 µM)
MIC (N. gonorrhoeae [1]; N. gonorrhoeae 206, CO2 (5% CO2 containing air), read-out: MIC): > 128 µg/mL
MIC (N. gonorrhoeae [1]; N. gonorrhoeae 206, Non CO2 (ambient air), read-out: MIC): 4 µg/mL (≈ 13.1 µM)
MIC (N. gonorrhoeae [1]; N. gonorrhoeae 207, CO2 (5% CO2 containing air), read-out: MIC): > 128 µg/mL
MIC (N. gonorrhoeae [1]; N. gonorrhoeae 207, Non CO2 (ambient air), read-out: MIC): 4 µg/mL (≈ 13.1 µM)
MIC (N. gonorrhoeae [1]; N. gonorrhoeae 208, CO2 (5% CO2 containing air), read-out: MIC): > 128 µg/mL
MIC (N. gonorrhoeae [1]; N. gonorrhoeae 208, Non CO2 (ambient air), read-out: MIC): 4 µg/mL (≈ 13.1 µM)
MIC (N. gonorrhoeae [1]; N. gonorrhoeae 209, CO2 (5% CO2 containing air), read-out: MIC): > 128 µg/mL
MIC (N. gonorrhoeae [1]; N. gonorrhoeae 209, Non CO2 (ambient air), read-out: MIC): 1 µg/mL (≈ 3.28 µM)
MIC (N. gonorrhoeae [1]; N. gonorrhoeae 210, CO2 (5% CO2 containing air), read-out: MIC): > 128 µg/mL
MIC (N. gonorrhoeae [1]; N. gonorrhoeae 210, Non CO2 (ambient air), read-out: MIC): 4 µg/mL (≈ 13.1 µM)
MIC (N. gonorrhoeae [1]; N. gonorrhoeae 211, CO2 (5% CO2 containing air), read-out: MIC): > 64 µg/mL
MIC (N. gonorrhoeae [1]; N. gonorrhoeae 211, Non CO2 (ambient air), read-out: MIC): 1 µg/mL (≈ 3.28 µM)
MIC (N. gonorrhoeae [1]; N. gonorrhoeae 212, CO2 (5% CO2 containing air), read-out: MIC): > 128 µg/mL
MIC (N. gonorrhoeae [1]; N. gonorrhoeae 212, Non CO2 (ambient air), read-out: MIC): 32 µg/mL (≈ 105 µM)
MIC (N. gonorrhoeae [1]; N. gonorrhoeae 213, CO2 (5% CO2 containing air), read-out: MIC): > 128 µg/mL
MIC (N. gonorrhoeae [1]; N. gonorrhoeae 213, Non CO2 (ambient air), read-out: MIC): 16 µg/mL (≈ 52.4 µM)
MIC (N. gonorrhoeae [1]; N. gonorrhoeae 214, CO2 (5% CO2 containing air), read-out: MIC): > 128 µg/mL
MIC (N. gonorrhoeae [1]; N. gonorrhoeae 214, Non CO2 (ambient air), read-out: MIC): 1 µg/mL (≈ 3.28 µM)
MIC50 (N. gonorrhoeae [1]; [3]): > 128 µg/mL
MIC90 (N. gonorrhoeae [1]; [3]): > 128 µg/mL
MIC (N. gonorrhoeae [1]; strain panel of Table 9, CO2 (5% CO2 containing air), read-out: Modal MIC): > 128 µg/mL
MIC50 (N. gonorrhoeae [1]; strain panel of Table 9, Non CO2 (ambient air)): 4 µg/mL (≈ 13.1 µM)
MIC (N. gonorrhoeae [1]; strain panel of Table 9, Non CO2 (ambient air), read-out: Modal MIC): 4 µg/mL (≈ 13.1 µM)
MIC90 (N. gonorrhoeae [1]; strain panel of Table 9, Non CO2 (ambient air, standard CO2 conditions)): 16 µg/mL (≈ 52.4 µM)
SMILES: NS(=O)(=O)c1cc(Cl)c(Cl)c(S(N)(=O)=O)c1 [Dichlorphenamide]
MIC (N. gonorrhoeae [2]; N. gonorrhoeae 178, Non CO2 environment): 2 µg/mL (≈ 6.55 µM)
MIC (N. gonorrhoeae [2]; N. gonorrhoeae 178, normal growth environment (with CO2)): > 64 µg/mL
MIC (N. gonorrhoeae [2]; N. gonorrhoeae 181, Non CO2 environment): 8 µg/mL (≈ 26.2 µM)
MIC (N. gonorrhoeae [2]; N. gonorrhoeae 181, normal growth environment (with CO2)): > 64 µg/mL
MIC (N. gonorrhoeae [2]; N. gonorrhoeae 194, Non CO2 environment): 4 µg/mL (≈ 13.1 µM)
MIC (N. gonorrhoeae [2]; N. gonorrhoeae 194, normal growth environment (with CO2)): > 64 µg/mL
